Key:
Npc1^−/− mice [1] = assay: Lipid storage (GSLs, sphingoid bases) in forebrain and cerebellum of Npc1−/− mice; assay type: in vivo, mouse; parameters: concentration or dose not given beside the values; conditions: Npc1−/− mice treated from 3 weeks, 59 days of age
Procedure: (§1) ADLL and enantiomers (ADLL: Molekula #73891210, ALL: Sigma Aldrich #441511, ADL: Sigma #A0876) were administered as dry admix in powdered mouse diet (PicoLab Rodent Diet 20/5053, LabDiet) at a dose of 0.1 g/kg/day for in vivo studies. Treatment groups for in vivo study consisted of at least 5 mice per group. In vitro studies were conducted with each compound dissolved in PBS to generate a 50 mM stock solution and diluted to a 1 mM working concentration in media (DMEM High Glucose-Gibco #10566016).
(§2) Biochemical and immunohistochemical analyses. Mice were saline perfused under terminal anaesthesia. Tissues for biochemical analysis were snap-frozen on ice-cold isopentane. For immunofluorescent staining, tissues were perfused with 4% PFA followed by PBS and kept in 4% PFA for 24h and stored in PBS containing 20% sucrose longer term. Brains were cut parasagitally (20 micron sections) and stored in 30% ethylene glycol, 30% glycerol 0.1 M sodium phosphate buffer (pH 7.4) at −20° C. Biochemical analysis was performed on water-homogenised tissues (50 mg/ml) and protein content was determined using a BCA protein assay (Thermo Fisher #23227) according to the manufacturer's instructions.
(§3) Sphingoid Base Measurements: Sphingoid bases (sphingosine and sphinganine) were extracted from 100 uL tissue homogenates in 500 uL of chloroform:methanol (1:2v/v) followed by sonication for 10 minutes at room temperature. Subsequently, 1 M 500-uL sodium chloride, 500 uL chloroform, and 3 M 100 uL sodium hydroxide were added to the samples, and vortexed every five minutes for 15 minutes at room temperature. Homogenates were centrifuged (13,000 g for 10 minutes) and the lower organic phase retained. Sphingoid bases were purified from the samples by pre-equilibrating SPA-NH2 columns with 2×1 mL chloroform followed by sample elution with 3×300 ul acetone. The samples were dried under nitrogen. Lipids were resuspended in 50 uL pre-warmed ethanol (37° C.) and 50 uL OPA labelling solution (1 mg OPA/20 uL Ethanol/1 uL 2-mercaptoethanol; dilution 1:2000 in 3% boric acid pH 10.5) was added. Samples were kept at room temperature in the dark for 20 minutes and vortexed every 10 minutes. Samples were buffered with 100 uL methanol: 5 mM Tris pH 7 (9:1) and centrifuged at 5,000 g for 2 minutes. Supernatants (150 uL) were loaded onto a reverse phase HPLC. Chromatography was carried out using a mobile phase of 85% acetonitrile/15% H2O at a flow rate of 1.0 ml/min. The orthophthaldehyde-labelled derivatives were monitored at an excitation wavelength of 340 nm and an emission wavelength of 450 nm. Quantification of trace peak area was carried out using EZChrom Elite software v3.2.1.
(§4) Glycosphingolipid measurements: Glycosphingolipids were extracted and measured by NP-HPLC according to published methods. Tissue homogenates in chloroform/methanol (C:M) (1:2 v/v) overnight at 4° C. The mixture was centrifuged (3000 rpm/10 min) and 1 mL chloroform and 1 mL PBS were added to the supernatant and centrifuged (3000 rpm/10 min). The lower phase was dried under N2, resuspended in 50 uL C:M 1:3 v/v and combined with the upper phase. Subsequently, GSLs were recovered using C18 Isolute columns (100 mg) (Biotage) pre-equilibrated with 4×1 mL MeOH and 2×1 mL H2O. Samples were washed 3×1 mL H2O and eluted with 1 mL C:M 98:2, 2×1 mL C:M 1:3, 1 mL MeOH. The column eluate was dried under N2, resuspended in 100 uL C:M 2:1, dried again under N2 and resuspended in ceramide glycanase (CGase) buffer (50 mM sodium acetate pH 5.5, 1 mg/mL sodium taurodeoxycholate). 50 mU CGase was added, and samples incubated at 37° C. overnight. Released oligosaccharides were anthranilic acid (2-AA) labelled and purified by mixing with 1 mL Acetonitrile: H2O 97:3 and added to Discovery DPA-6S columns (SUPELCO, # 52625-U) pre-equilibrated with 1 mL acetonitrile, 2×1 mL H2O, and 2×1 mL acetonitrile. Columns were washed with 2×1 mL Acetonitrile: H2O 95:5 v/v, and eluted in 2×0.75 mL H2O. […]

Npc1^−/− mice [2] = assay: Lipid storage (GSLs, sphingoid bases, cholesterol) in liver of Npc1−/− mice; assay type: in vivo, mouse; parameters: reduction of liver GSL levels (total) / reduction of GM2Gc in liver / reduction of sphingosine in liver / reduction of sphinganine in liver / reduction of GM3Gc in liver: concentration or dose not given beside the values; conditions: 59 days of age
Procedure: as §1, §2, §3, §4

[3] = tested on: Npc1^−/− Chinese Hamster Ovary (CHO) cells; assay: Sphingosine, total GSL and cholesterol content in NPC1 null CHO cells; assay type: cell-based; conditions: 1 mM, 72 hours
Procedure: Wild type and NPC1 null Chinese Hamster Ovary (CHO) cells were kindly provided by Chris Wassif (NIH).
as §1, §3
Glycosphingolipid measurements: Glycosphingolipids were extracted and measured by NP-HPLC according to published methods. Tissue homogenates in chloroform/methanol (C:M) (1:2 v/v) overnight at 4° C. The mixture was centrifuged (3000 rpm/10 min) and 1 mL chloroform and 1 mL PBS were added to the supernatant and centrifuged (3000 rpm/10 min). The lower phase was dried under N2, resuspended in 50 uL C:M 1:3 v/v and combined with the upper phase. Subsequently, GSLs were recovered using C18 Isolute columns (100 mg) (Biotage) pre-equilibrated with 4×1 mL MeOH and 2×1 mL H2O. Samples were washed 3×1 mL H2O and eluted with 1 mL C:M 98:2, 2×1 mL C:M 1:3, 1 mL MeOH. The column eluate was dried under N2, resuspended in 100 uL C:M 2:1, dried again under N2 and resuspended in ceramide glycanase (CGase) buffer (50 mM sodium acetate pH 5.5, 1 mg/mL sodium taurodeoxycholate). 50 mU CGase was added, and samples incubated at 37° C. overnight. Released oligosaccharides were anthranilic acid (2-AA) labelled and purified by mixing with 1 mL Acetonitrile: H2O 97:3 and added to Discovery DPA-6S columns (SUPELCO, # 52625-U) pre-equilibrated with 1 mL acetonitrile, 2×1 mL H2O, and 2×1 mL acetonitrile. Columns were washed with 2×1 mL Acetonitrile: H2O 95:5 v/v, and eluted in 2×0.75 mL H2O. Samples were loaded 30:70 H2O: MeCN (v/v) for normal phase HPLC. Solvent A was acetonitrile, solvent B was H2O, and solvent C was 100 mM […] (pH 3.85) in H2O. Separation was carried out at 30° C. using Waters Alliance 2695 separation module, excitation 360, emission 425 using Waters 2475 Fluorescence detector.
Cholesterol measurements: Cholesterol was measured with the Amplex Red kit (Molecular Probes) according to the manufacturer's instructions. Briefly, cell and tissue homogenates in 100 uL mQ water were Folch extracted and dried down under nitrogen. […]

Row | Compound | reduction of sphinganine in cerebellum (Npc1^−/− mice [1]) [%] | reduction of sphinganine levels in forebrain (Npc1^−/− mice [1]) [%] | decrease of total free cholesterol in liver (Npc1^−/− mice [2]) [%] | reduction of sphinganine in liver (Npc1^−/− mice [2]) [%] | reduction of sphingosine in liver (Npc1^−/− mice [2]) [%] | reduction of GM2Gc in liver (Npc1^−/− mice [2]; vs untreated Npc1−/−) [%] | reduction of liver GSL levels (total) (Npc1^−/− mice [2]; vs untreated Npc1−/−) [%] | reduction of cholesterol content [3] [%] | reduction of sphingosine levels [3] [%] | reduction of total GSL levels [3] [%] | reduction of GA2 in cerebellum (Npc1^−/− mice [1]) [%] | reduction of GA1 in cerebellum (Npc1^−/− mice [1]) [%] | reduction of GM1a in forebrain (Npc1^−/− mice [1]) [%] | reduction of GM2 in forebrain (Npc1^−/− mice [1]) [%] | reduction of GM3Gc in liver (Npc1^−/− mice [2]; vs untreated Npc1−/−) [%]
1 | CC(=O)N[C@H](CC(C)C)C(=O)O [ADL, N-acetyl-D-leucine] | 42.3 | 18.2 | 16.2 | 38.5 | 33.6 | 29 | 26.9 | 14 | 14 | 22 |  |  |  |  | 
2 | CC(=O)NC(CC(C)C)C(=O)O (racemic) [ADLL, N-acetyl-DL-leucine] |  | 13.5 | 18.2 | 32.5 | 29.5 | 26.7 | 26.9 | 18 | 22 | 26 | 21.3 |  |  |  | 
3 | CC(=O)N[C@@H](CC(C)C)C(=O)O [ALL, N-acetyl-L-leucine] |  |  | 23.4 | 37.4 | 33.2 | 45 | 45.6 | 13 | 29 | 25 | 23.8 | 23.5 | 20.1 | 19.6 | 54.8
